# Results reported in patent US8476051B2, “Thermostable alcohol dehydrogenase derived from Thermococcus guaymasensis” (priority 2008, dated 2013).
# Entries after “also recorded” stand apart in the source; their conditions may differ. Read-outs that look alike come from different tables or passages of the source. Marks after values point to notes of the source that are not given here.
# How the values were obtained:
# [1] = target: T1, T. guaymasensis ADH (Thermococcus guaymasensis, UniProt F8S123); assay: Substrate specificity, aldehyde/ketone reduction (standard enzyme assay); assay type: biochemical; settings: aldehydes or ketones 6 mM; 100% = 2-butanone; 0.2 mM NADPH, pH 7.5, 80° C.
# Method: (§1) The purified enzyme (0.25 μg) initiated the enzyme assay. […] The protein concentrations of all samples were determined using the Bradford method and bovine serum albumin served as the standard protein (Bradford 1976).
# (§2) The effect of pH on the enzyme activities was determined over a range of 5.5-11.4. The buffers (100 mM) used were phosphate (pH 5.5-8.0), EPPS (8.0-9.0), glycylglycine (9.0-9.7), and CAPS (9.7-11.4). The effect of the temperature on the enzyme activity was examined at temperatures from 30 to 95° C. Enzyme thermostability was determined by incubating the enzyme in sealed serum bottles at 80° C. and 95° C., respectively. Residual activity was assayed at various time intervals under the standard assay conditions. Substrate specificity was determined using primary and secondary alcohols (50 mM), diols and polyols (50 mM), or aldehydes and ketones (6 mM) under standard assay conditions.
# [2] = target: T1, T. guaymasensis ADH; assay: Stereoselective conversion between acetoin and 2,3-butanediol (chiral GC); assay type: biochemical
# Method: All the reactions were carried out at 30° C. for 24 hours unless specified. After that, the reaction mixture (1 ml) was extracted with 1 ml ethyl acetate or dichloride methane with shaking on a Gyrotory water bath shaker model G76 (New Brunswick Scientific Co., INC., NJ, USA) at 350 rpm for 30 min (room temperature). The stereoselectivity of the purified enzyme was determined using the Shimadzu GC-14A gas chromatography equipped with a CP-Chirasil-Dex CB column (0.25 mm ID×25 m length, Varian Inc., Palo Alto, Calif., USA). The following GC operating conditions included the FID detector (250° C.) at a sensitivity range of 10 and helium as the carrier gas at a linear velocity of 40 cm s^−1. […] The reaction mixture after extraction (0.5 μl) was directly applied onto the injector (200° C.) for each assay. The peak areas were quantitated using specific external standards.
# [3] = target: T1, T. guaymasensis ADH; assay: Substrate specificity, alcohol oxidation (standard enzyme assay); assay type: biochemical; settings: for Relative activity (alcohol oxidation): alcohols 50 mM, 100% = 2-butanol, 0.4 mM NADP^+, pH 10.5, 80° C.
# Method: as §1, §2
# [4] = test system: T. guaymasensis ADH; assay: Effect of metal ions on enzyme activity (2-butanone reduction); assay type: biochemical, Thermococcus guaymasensis; settings: up to 100 μM in the assay mixture
# Method: as §2
# Metal ions were added in the enzyme assay mixture at a final concentration of 100 μM.
# [5] = test system: C[C@H](O)[C@@H](C)O; assay: purified protein, by the assay type; settings: other: co-substrate NADP^+ (0.4 mM); 80.0 °C
# [6] = test system: C[C@@H](O)[C@@H](C)O; assay: purified protein, by the assay type; settings: other: co-substrate NADP^+ (0.4 mM); 80.0 °C
# [7] = ADH specific activity (spectrophotometric enzyme assay); assay type: biochemical
# Method: as §1
# The reaction was initiated by adding enzymes.
# [8] = Oxygen sensitivity (residual activity after exposure to air); assay type: physicochemical; settings: exposed to air for a week
# Method: The effect of oxygen on enzyme activity was investigated by exposing the enzyme samples in the air at room temperature and determining the residual activity after oxygen exposure. The exposure was performed in the presence or absence of DDT and SDT. The residual activities of each sample at different time intervals were tested parallelly under the standard assay conditions.
# [9] = substrate: CCC(C)=O; assay: purified protein, by the assay type; settings: other: co-substrate NADPH (0.2 mM); 80.0 °C
# [10] = substrate: CC(=O)C(C)=O; assay: purified protein, by the assay type; settings: other: co-substrate NADPH (0.2 mM); 80.0 °C
# [11] = substrate: CC(=O)C(C)O; assay: purified protein, by the assay type; assay type: biochemical, Thermococcus guaymasensis; settings: other: co-substrate NADPH (0.2 mM); 80.0 °C
# Method: Apparent values of Km and Vmax were calculated using the curve fittings of SigmaPlot (Systat Software Inc., San Jose, Calif., USA).
# [12] = oxidation, 50 mM substrate, 500 mM acetone, 1 mM NADP^+, 30° C., 24 hours
molecule,measurement,setting,value
CCCC(C)=O [2-Pentanone],Relative activity (aldehyde/ketone reduction),[1],86.2 ± 3.1%
"C[C@H](O)[C@@H](C)O [meso-2,3-butanediol]",Enantiomeric excess (ee) of product (3S)-acetoin,[2]; [12],88%
"CC(O)C(C)O (stereo not shown) [2,3-Butanediol]",Relative activity (alcohol oxidation),[3],78.7 ± 3.4%
CO [Methanol],Oxidation of the substrate by the enzyme (in words),[3],did not oxidize
same,Relative activity (alcohol oxidation),[3],0%
CCCC(C)O (stereo not shown) [2-Pentanol],Relative activity (alcohol oxidation),[3],66.3%
CCC(C)O (stereo not shown) [2-Butanol],Activity meant by relative activity of 100% in alcohol oxidation,[3]; 50 mM substrate,^aThe relative activity of 100% in alcohol oxidation means 1144 ± 24 U mg^−1.
same,Relative activity (alcohol oxidation),[3],100 ± 2.2^a %
"CCC(O)CO (stereo not shown) [1,2-Butanediol]",Relative activity (alcohol oxidation),[3],25.6 ± 2.3%
1-Propanol,Relative activity (alcohol oxidation),[3],15.1 ± 0.3%
OCC(O)CO [Glycerol],Relative activity (alcohol oxidation),[3],0.2 ± 0.1%
CCO [Ethanol],Relative activity (alcohol oxidation),[3],5.7 ± 0.3%
[Zn+2] [Zn^2+],Effect on enzyme activity (butanol formation),[4],inhibited
same,Effect on enzyme activity (butanol formation),[4]; listed as zinc,blocked
C[C@@H](O)[C@H](N)C(=O)O [L-threonine],Oxidation of the substrate by the enzyme (in words),[3],no activity; also recorded: did not catalyze
same,Oxidation of the substrate by the enzyme (in words),[3]; listed as threonine,did not catalyze
CC(=O)C(C)=O [Diacetyl],Relative activity (aldehyde/ketone reduction),[1],134.8 ± 5.9%
CCC(C)=O [2-Butanone],Relative activity (aldehyde/ketone reduction),[1],100 ± 3.4^b %
same,Stereoselectivity of the reduction (in words),[2]; reduction to chiral 2-butanols,no stereoselectivity
CCCCO [1-Butanol],Relative activity (alcohol oxidation),[3],5.1 ± 0.2%
CC(=O)C(C)O (racemic) [Acetoin],Oxidation of the substrate by the enzyme (in words),[3],could not oxidize; also recorded: cannot be oxidized
same,Relative activity (aldehyde/ketone reduction),[1],93 ± 3.2%
same,"ee of (2R,3R)-2,3-butanediol and meso-2,3-butanediol over (2S,3S)-(+)-2,3-butanediol","[2]; reduction, 50 mM substrate, 500 mM isopropanol, 1 mM NADPH, 30° C., 24 hours",> 99%
"CCCC(O)CO (stereo not shown) [1,2-Pentanediol]",Relative activity (alcohol oxidation),[3],4.7 ± 0.3%
"C[C@@H](O)[C@@H](C)O [(2R,3R)-(−)-2,3-butanediol]",Enantiomeric excess (ee) of product (3R)-acetoin,[2]; [12],94%
CC(C)O [2-Propanol],Relative activity (alcohol oxidation),[3],88 ± 1.1%
CCCC=O [Butyraldehyde],Relative activity (aldehyde/ketone reduction),[1],112.4 ± 11.9%
"CC(O)CC(C)O (stereo not shown) [2,4-Pentanediol]",Relative activity (alcohol oxidation),[3],9.2 ± 0.1%
T. guaymasensis ADH (Thermococcus guaymasensis),Km,[5],19300 µM
same,Vmax,[5],1430 µmol/min/mg
same,kcat,[5],952 s⁻¹
same,kcat/Km,[5],49000 M⁻¹ s⁻¹
same,Km,[6],15200 µM
same,Vmax,[6],1110 µmol/min/mg
same,kcat,[6],740 s⁻¹
same,kcat/Km,[6],49000 M⁻¹ s⁻¹
CC(C)=O [Acetone],Relative activity (aldehyde/ketone reduction),[1],149.4 ± 2.8%
CC=O [Acetaldehyde],Relative activity (aldehyde/ketone reduction),[1],36 ± 4.2%
"CC(O)CCO (stereo not shown) [1,3-Butanediol]",Relative activity (alcohol oxidation),[3],35.4 ± 1.1%
CCCCCO [1-Pentanol],Relative activity (alcohol oxidation),[3],0.8 ± 0.2%
N[C@@H](CO)C(=O)O [L-serine],Oxidation of the substrate by the enzyme (in words),[3],no activity; also recorded: did not catalyze
"TgADH(C56S): TgADH mutant, serine for cysteine at position 56 (SEQ ID NO:10), expressed in E. coli Rosetta-2 (protein, C56S with vector coding region) MHHHHHHSSGLVPRGSGMKETAAAKFERQHMDSPDLGTDDDDKAMADIGSEFMSKMRGFAMVDFGKAEWIEKERPKPGPYDAIVKPIAVAPCTSDIHTVFEAAFPREMSEFPRILGHEAVGEVVEVGSHVKDFKPGDRVVVPAITPDWRTLDVQRGYHQHSGGMLAGWKFSNPLKEGGKDGVFAEYFHVNDADMNLAHLPDEIKPEVAVMATDMMTTGFHGAELADIPLGGTVAVIGIGPVGLMAVAGARLLGAGRIIAVGSRPVCVEAAKYYGATDIVNRREHPDIAGRILELTGGEGVDSVIIAGGNVDVMKTAVKIVKPGGTVANINYFGSGDYLPIPRIEWGQGMAHKTIKGGLCPGGRLRMERLLDLIKYGRVDPSRLITHKFKGFDKIPEALYLMKDKPKDLIKPVVIIEE",Enzyme activity compared with wild type TgADH (in words),[7],virtually no difference
same,Activity after exposure to air (in words),[8],lost activity
T. guaymasensis ADH (Thermococcus guaymasensis) (protein) SKMRGFAMVDFGKAEWIEKERPKPGPYDAIVKPIAVAPCTSDIHTVFEAAFPREMCEFPRILGHEAVGEVVEVGSHVKDFKPGDRVVVPAITPDWRTLDVQRGYHQHSGGMLAGWKFSNPLKEGGKDGVFAEYFHVNDADMNLAHLPDEIKPEVAVMATDMMTTGFHGAELADIPLGGTVAVIGIGPVGLMAVAGARLLGAGRIIAVGSRPVCVEAAKYYGATDIVNRREHPDIAGRILELTGGEGVDSVIIAGGNVDVMKTAVKIVKPGGTVANINYFGSGDYLPIPRIEWGQGMAHKTIKGGLCPGGRLRMERLLDLIKYGRVDPSRLITHKFKGFDKIPEALYLMKDKPKDLIKPVVIIEE,Km,[9],310 µM
same,Vmax,[9],285 U mg^−1
same,kcat,[9],190 s⁻¹
same,kcat/Km,[9],"613,000 s^−1M^−1"
same,Km,[10],210 µM
same,Vmax,[10],303 µmol/min/mg
same,kcat,[10],202 s⁻¹
same,kcat/Km,[10],962000 M⁻¹ s⁻¹
same,Km,[11],320 µM
same,Vmax,[11],213 µmol/min/mg
same,kcat,[11],142 s⁻¹
same,kcat/Km,[11],444000 M⁻¹ s⁻¹
